Measurements from patent US4698332A, “Expectorant” (Mect Corporation, priority 1984, dated 1987).
Structures can show the parent of a compound that is named as a salt. Where two headings read alike, the source gives them in different places.

Columns and labels:
[1] = system: ciliated cells from human airway and frog palate; experiment: Rotation of ciliated cell groups (Example 4); type: cell-based; details: 10^-3 to 3×10^-2 mg/ml
From the text: Using ciliated cells from human airway and frog palate, rotation of cell groups due to ciliary beat was observed before and after application of N-acetylneuraminic acid and calcium salt of N-acetylneuraminic acid, in order to confirm the effect of these agents on the cilitated cells.
(§1) Human ciliated cells were collected from a normal trachea by means of a branchoscope, the ciliated cells being separated by rubbing the bronchus while observing through the branchoscope, while the collection of frog cilitated cells was conducted by rubbing the palatine mucosta, without being specially careful. […] The groups of cells were transferred to a cover slip and one drop of chicken plasma (prepared by Difco Company) and one drop of 50% chicken embryo extract were added to the cells, thus forming clots. The rotary motion in the clots was recorded by means of a video recorder and the number of rotations per minute was measured.

ciliated cell = experiment: Rotating ciliated explant (Example 9, Table 7); type: cell-based; details: for activation at 10 µg/mL: 10^-2 mg/ml (terbutaline 1-^-2 [sic]); for activation at 10 µg/mL / activation at 1 µg/mL / activation at 0.1 µg/mL: mean ± SD, > 20.0 significant, read-out: Acceleration (rotating ciliated explant); for activation at 1 µg/mL: 10^-3 mg/ml; for activation at 0.1 µg/mL: 10^-4 mg/ml
Experimental: as §1, with “measured. The agents were dissolved in the Medium 199 and were injected through a tube attached to a rose chamber. The state of rotary motion 5 minutes, 10 minutes and 15 minutes after the injection were recorded by means of a video recorder, and the number of revolutions was measured.” for “measured.”
A test was conducted to examine the above-mentioned effect by using sodium salt of N-Acetylneuraminic Acid, in accordance with the same testing method as that of Example 2.

palatine mucosa of frog = experiment: Ciliary movement of frog palatine mucosa, particle transport method (Example 3, Tables 1-3); type: cell-based, bull frog; details: for activation at 100 µg/mL / activation at 10 µg/mL: control = 0, read-out: Acceleration
Experimental: Bull frogs (furnished by Saitama Test Animal) weighing 300 to 450 g were used regardless of sex.
N-acetylneuraminic acid and calcium salt of N-acetylneuraminic acid (provided by Kanto Ishiseiyaku Kabushiki Kaisha), as well as acetylcholine chloride (furnished by Sigma Kabushiki Kaisha) were used as the test substances.
Mucociliary transport was measured by the particle transport method. After decapitation of a frog, the surface of the palatine mucosa was separated with minimized damage and of fixed to a cork plate in a Petri dish which was then filled with 20 ml of Ringer's solution (trishydrochloric acid). The palatine mucosa was left in this state for 30 minutes before the commencement of measurement. For measurement, the Ringer's solution was removed and fine pieces of cork (capable of passing pharmaceutical sieve No. 5 but not capable of passing No. 6) were placed on the surface of the palatine mucosa, and the time (in seconds) required for the cork piece to move 1 cm was measured. The duration of movement, i.e., moving speed, was measured also in the state immediately after the removal of the Ringer's solution or pharmaceutical solution.

In the case of `CC(C)(C)NCC(O)c1cc(O)cc(O)c1` (centres unmarked) [terbutaline, 5-[2-[(1.1-dimetylethyl)amino]-1-hydoxyethyl]-1,3-benzenediole], the “Effect on rotary motion of the cilium cells” value [1] is reported as “the rotary motion of the cilium cells is increased”, the “Effect on rotary motion, time dependence” value ([1]; 5 minutes after application) is reported as “particularly remarkable 5 minutes after the application” and the Effect on rotation (ciliated cell; 10^-4 to 10^- mg/ml (so in the source)) is reported as “general tendency of increase of the rotation”. For the same compound, the activation at 10 µg/mL (ciliated cell; 5 min, 5 min after perfusion) was 18.6 ± 0.3%, the activation at 1 µg/mL (ciliated cell; 5 min, 5 min after perfusion) was 51.2 ± 36% and the activation at 0.1 µg/mL (ciliated cell; 5 min, 5 min after perfusion) was -5.2 ± 12.2%. The activation at 10 µg/mL (ciliated cell; 10 min, 10 min after perfusion) was 24.8 ± 3.5%, the activation at 1 µg/mL (ciliated cell; 10 min, 10 min after perfusion) was 37.2 ± 35.5% and the activation at 0.1 µg/mL (ciliated cell; 10 min, 10 min after perfusion) was 1.6 ± 4.6%. The activation at 10 µg/mL (ciliated cell; 0.25 h, 15 min after perfusion) was 2.7 ± 7.4%, the activation at 1 µg/mL (ciliated cell; 0.25 h, 15 min after perfusion) was 42.1 ± 32.8% and the activation at 0.1 µg/mL (ciliated cell; 0.25 h, 15 min after perfusion) was 6.7 ± 3%.

`CC(=O)N[C@H]1[C@H]([C@H](O)[C@H](O)CO)OC(O)(C(=O)O)C[C@@H]1O` (some centres unmarked) [calcium salt of N-acetylneuraminic acid] gave a Movement (palatine mucosa of frog; 10^-4 g/ml, frog number 1) of 23.0 s/cm, an activation at 100 µg/mL (palatine mucosa of frog; 10^-4 g/ml, frog number 1) of 39% and a Movement (palatine mucosa of frog; 10^-4 g/ml, frog number 2) of 29.0 s/cm. For the same compound, the activation at 100 µg/mL (palatine mucosa of frog; 10^-4 g/ml, frog number 2) was 28.7%, the Movement (palatine mucosa of frog; 10^-4 g/ml, frog number 3) was 19.7 s/cm and the activation at 100 µg/mL (palatine mucosa of frog; 10^-4 g/ml, frog number 3) was 46.8%. For the same compound, the Movement (palatine mucosa of frog; 10^-5 g/ml, frog number 1) was 25.0 s/cm, the activation at 10 µg/mL (palatine mucosa of frog; 10^-5 g/ml, frog number 1) was 33.7% and the Movement (palatine mucosa of frog; 10^-5 g/ml, frog number 2) was 29.3 s/cm. The activation at 10 µg/mL (palatine mucosa of frog; 10^-5 g/ml, frog number 2) was 28%, the Movement (palatine mucosa of frog; 10^-5 g/ml, frog number 3) was 24.3 s/cm and the activation at 10 µg/mL (palatine mucosa of frog; 10^-5 g/ml, frog number 3) was 34.2%. The “Effect on ciliary movement of palatine mucosa” value (palatine mucosa of frog; Tables 1 and 3) was “acceleration of the ciliary movement of palatine mucosa in a certain dose-dependency” and the “Ciliary movement promoting effect compared with acetylcholine” value (palatine mucosa of frog; acetylcholine control at 10^-5 and 10^-4) was “substantially the same ciliary movement promoting effect as the acetylcholine”.
